Laboratory results taken from patent publication US20190142800A1, “SYNERGISTIC ANTIFUNGAL COMPOSITIONS AND METHODS THEREOF” (VYOME THERAPEUTICS LIMITED, priority 2016, published 2019).

Columns and labels:
[1] = tested on: azole resistant C. albicans MTCC 227; experiment: Checkerboard assay on azole resistant C. albicans MTCC 227; format: cell-based, Candida albicans; details: for MIC: Candida albicans, MTCC227, agent alone
Procedure: The synergy is measured by determining the fractional inhibitory concentration (FIC) value of the combination. This experimental set up, called checkerboard method, allows measurement of a desired effect (inhibition of fungal growth in this case) at different combinations of various concentrations of the two agents (antifungal agent and fatty acid/ester). […] No agent is added to the penultimate column on the right and the bottom row. The final column on the right is used for growth control (only inoculum in broth) and sterility control (broth alone, no inoculum). […] FIC values for both agents in a particular well were calculated in this way followed by determination of the FIC index (sum of the FICs of each drug in the concerned well). […] Agents Chemother.
(§1) Using the checkerboard layout experimental setup described above (FIG. 1A), various medium-chain fatty acids were tested for their ability to potentiate the activity of a known antifungal agent. Concentrations above and below the MIC of each test agent were tested using serial dilution. The same procedure was expanded to test combinations of various medium-chain fatty acids C-1 to C-14 (such caprylic acid, undecylenic acid and lauric acid) and esters thereof, with antifungal agents from various classes including azoles, allylamines, benzylamines, zinc pyrithione and piroctone olamine against both susceptible and resistant Trichophyton spp. (filamentous fungus) and Candida spp. (yeast).
Potentiation of the activity of antimycotic agents using ester derivatives of medium chain fatty acids was tested in a standard, well accepted in vitro assay system to check for synergy. This experimental set up, called checkerboard method, allows measurement of a desired effect (inhibition of fungal growth in this case) at different combinations of various concentrations of two agents. A chosen medium chain fatty acid (C-1 to C-14) or its ester derivative was tested for its ability to potentiate the activity of a known antifungal agent (various classes) using the checkerboard layout. Various concentrations above and below the MIC of each test agent were tested using serial dilution in Sabouraud dextrose broth. […] FIC values for both test agents in a particular well are calculated in this way followed by determination of the FIC index (sum of the FICs of each drug in the concerned well).

[2] = tested on: Trichophyton rubrum (ATCC-28188); experiment: Checkerboard assay of fatty acid/ester with antifungals on Trichophyton rubrum (ATCC 28188); format: cell-based; set-up: key to FIC index: FIC index = sum of FICs; FIC = agent conc in well / agent MIC; details: for MIC: Trichophyton rubrum, ATCC28188, agent alone
Procedure: The synergy is measured by determining the fractional inhibitory concentration (FIC) value of the combination. This experimental set up, called checkerboard method, allows measurement of a desired effect (inhibition of fungal growth in this case) at different combinations of various concentrations of the two agents (antifungal agent and fatty acid/ester). […] No agent is added to the penultimate column on the right and the bottom row. The final column on the right is used for growth control (only inoculum in broth) and sterility control (broth alone, no inoculum). […] FIC value for each agent in a particular well of the checkerboard layout was calculated by dividing the agent concentration in that well by the established MIC value of the agent against the test organism (Hsieh et al., Synergy assessed by checkerboard: A critical Analysis, Diagn. Microbiol. Infect Dis. (1993) 16:343-349). FIC values for both agents in a particular well were calculated in this way followed by determination of the FIC index (sum of the FICs of each drug in the concerned well). […] Agents Chemother. (2010) 54(2): 602-609].
as §1
Potentiation of the activity of antimycotic agents using ester derivatives of medium chain fatty acids was tested in a standard, well accepted in vitro assay system to check for synergy. This experimental set up, called checkerboard method, allows measurement of a desired effect (inhibition of fungal growth in this case) at different combinations of various concentrations of two agents. A chosen medium chain fatty acid (C-1 to C-14) or its ester derivative was tested for its ability to potentiate the activity of a known antifungal agent (various classes) using the checkerboard layout. Various concentrations above and below the MIC of each test agent were tested using serial dilution in Sabouraud dextrose broth. […] FIC value for a drug in a particular well of the checkerboard layout is calculated by dividing the drug concentration in that well by the established MIC value of the drug against the test organism (Hsieh et al., Synergy assessed by checkerboard: A critical Analysis, Diagn. Microbiol. Infect Dis. (1993) 16:343-349). FIC values for both test agents in a particular well are calculated in this way followed by determination of the FIC index (sum of the FICs of each drug in the concerned well).

[3] = agent's MIC in combination antifungal + caprylic acid (partner: other agent of same combination no.)
[4] = agent's MIC in combination antifungal + glyceryl monocaprylate (partner: other agent of same combination no.)
[5] = agent's MIC in combination antifungal + lauric acid (partner: other agent of same combination no.)
[6] = agent's MIC in combination antifungal + propylene glycol monocaprylate (partner: other agent of same combination no.)
[7] = agent's MIC in combination antifungal + propylene glycol monolaurate (partner: other agent of same combination no.)
[8] = agent's MIC in combination antifungal + undecylenic acid (partner: other agent of same combination no.)
[9] = antifungal in combination with caprylic acid
[10] = antifungal in combination with glyceryl monocaprylate
[11] = antifungal in combination with lauric acid
[12] = antifungal in combination with propylene glycol monocaprylate
[13] = antifungal in combination with propylene glycol monolaurate
[14] = antifungal in combination with undecylenic acid
[15] = combination antifungal + caprylic acid
[16] = combination antifungal + glyceryl monocaprylate
[17] = combination antifungal + lauric acid
[18] = combination antifungal + propylene glycol monocaprylate
[19] = combination antifungal + propylene glycol monolaurate
[20] = combination antifungal + undecylenic acid

Question: Which MIC ([1]; Table 9, caprylic acid (C8) series) does the source give for CCC(C)n1ncn(-c2ccc(N3CCN(c4ccc(OCC5COC(Cn6cncn6)(c6ccc(Cl)cc6Cl)O5)cc4)CC3)cc2)c1=O (stereo not drawn) [Itraconazole] here?
Answer: Its MIC is 32 µg/mL.

Question: What about the MIC ([1]; Table 10, propylene glycol monocaprylate series) of the same compound?
Answer: The MIC was 64 µg/mL.

Question: What about the MIC ([1]; Table 11, glyceryl monocaprylate series) of the same compound?
Answer: The MIC was 32 µg/mL.

Question: And the MIC ([1]; Table 12, undecylenic acid (C11) series)?
Answer: Its MIC is 32 µg/mL.

Question: And the MIC ([1]; Table 13, lauric acid (C12) series)?
Answer: The MIC was 32 µg/mL.

Question: What about the MIC ([1]; Table 14, propylene glycol monolaurate series) of the same compound?
Answer: The MIC was 32 µg/mL.

Question: And the “Combination MIC” value [1, 3]?
Answer: Its value is 4 µg/mL.

Question: And the “Combination MIC” value [1, 4]?
Answer: Its value is 4 µg/mL.

Question: And the “Combination MIC” value [1, 5]?
Answer: The value was 0.125 µg/mL.

Question: What about the “Combination MIC” value [1, 6] of the same compound?
Answer: The value was 0.125 µg/mL.

Question: And the “Combination MIC” value [1, 7]?
Answer: Its value is 2 µg/mL.

Question: What about the “Combination MIC” value [1, 8] of the same compound?
Answer: The value was 0.125 µg/mL.

Question: What about the FIC index [1, 9] of the same compound?
Answer: The FIC index was 0.25.

Question: And the Interaction [1, 9]?
Answer: The Interaction was “Synergistic (Combinations that gave FIC indices less than 1 were designated “synergistic”)”.

Question: And the FIC index [1, 10]?
Answer: The FIC index was 0.375.

Question: And the Interaction [1, 10]?
Answer: Its Interaction is “Synergistic (Combinations that gave FIC indices less than 1 were designated “synergistic”)”.

Question: What about the FIC index [1, 11] of the same compound?
Answer: The FIC index was 0.253.

Question: What about the Interaction [1, 11] of the same compound?
Answer: The Interaction was “Synergistic (Combinations that gave FIC indices less than 1 were designated “synergistic”)”.

Question: And the FIC index [1, 12]?
Answer: The FIC index was 0.064.

Question: And the Interaction [1, 12]?
Answer: The Interaction was “Synergistic (Combinations that gave FIC indices less than 1 were designated “synergistic”)”.

Question: What about the FIC index [1, 13] of the same compound?
Answer: The FIC index was 0.07.

Question: What about the Interaction [1, 13] of the same compound?
Answer: The Interaction was “Synergistic (Combinations that gave FIC indices less than 1 were designated “synergistic”)”.

Question: And the FIC index [1, 14]?
Answer: The FIC index was 0.066.

Question: What about the Interaction [1, 14] of the same compound?
Answer: Its Interaction is “Synergistic (Combinations that gave FIC indices less than 1 were designated “synergistic”)”.

Question: What about the FIC [1, 15] of the same compound?
Answer: The FIC was 0.125.

Question: What about the FIC [1, 16] of the same compound?
Answer: The FIC was 0.125.

Question: And the FIC [1, 17]?
Answer: The FIC was 0.003.

Question: And the FIC [1, 18]?
Answer: The FIC was 0.002.

Question: And the FIC [1, 19]?
Answer: Its FIC is 0.0625.

Question: What about the FIC [1, 20] of the same compound?
Answer: The FIC was 0.003.

Question: And the MIC ([2]; Table 1, caprylic acid series)?
Answer: Its MIC is 0.125 µg/mL.

Question: And the MIC ([2]; Table 2, propylene glycol monocaprylate series)?
Answer: The MIC was 0.125 µg/mL.

Question: And the MIC ([2]; Table 3, glyceryl monocaprylate series)?
Answer: Its MIC is 0.125 µg/mL.

Question: What about the MIC ([2]; Table 4, undecylenic acid (C11) series) of the same compound?
Answer: The MIC was 0.125 µg/mL.

Question: What about the MIC ([2]; Table 5, lauric acid (C12) series) of the same compound?
Answer: Its MIC is 0.125 µg/mL.

Question: What about the MIC ([2]; Table 6, propylene glycol monolaurate series) of the same compound?
Answer: The MIC was 0.125 µg/mL.

Question: What about the “Combination MIC” value [2, 3] of the same compound?
Answer: Its value is 0.0312 µg/mL.

Question: What about the “Combination MIC” value [2, 4] of the same compound?
Answer: Its value is 0.007 µg/mL.

Question: And the “Combination MIC” value [2, 5]?
Answer: The value was 0.06 µg/mL.

Question: And the “Combination MIC” value [2, 6]?
Answer: Its value is 0.015 µg/mL.

Question: What about the “Combination MIC” value [2, 7] of the same compound?
Answer: Its value is 0.06 µg/mL.

Question: What about the “Combination MIC” value [2, 8] of the same compound?
Answer: The value was 0.0312 µg/mL.

Question: And the FIC index [2, 9]?
Answer: The FIC index was 0.5.

Question: And the Interaction [2, 9]?
Answer: Its Interaction is “Synergistic (Combinations that gave FIC indices less than 1 were designated “synergistic”)”.

Question: And the FIC index [2, 10]?
Answer: The FIC index was 0.562.

Question: What about the Interaction [2, 10] of the same compound?
Answer: Its Interaction is “Synergistic (Combinations that gave FIC indices less than 1 were designated “synergistic”)”.

Question: And the FIC index [2, 11]?
Answer: The FIC index was 0.75.

Question: And the Interaction [2, 11]?
Answer: Its Interaction is “Synergistic (Combinations that gave FIC indices less than 1 were designated “synergistic”)”.

Question: And the FIC index [2, 12]?
Answer: The FIC index was 0.625.

Question: What about the Interaction [2, 12] of the same compound?
Answer: Its Interaction is “Synergistic (Combinations that gave FIC indices less than 1 were designated “synergistic”)”.

Question: And the FIC index [2, 13]?
Answer: Its FIC index is 0.6.

Question: And the Interaction [2, 13]?
Answer: Its Interaction is “Synergistic (Combinations that gave FIC indices less than 1 were designated “synergistic”)”.

Question: What about the FIC index [2, 14] of the same compound?
Answer: The FIC index was 0.75.

Question: What about the Interaction [2, 14] of the same compound?
Answer: Its Interaction is “Synergistic (Combinations that gave FIC indices less than 1 were designated “synergistic”)”.

Question: What about the FIC [2, 15] of the same compound?
Answer: The FIC was 0.25.

Question: What about the FIC [2, 16] of the same compound?
Answer: The FIC was 0.0625.

Question: And the FIC [2, 17]?
Answer: The FIC was 0.5.

Question: What about the FIC [2, 18] of the same compound?
Answer: Its FIC is 0.125.

Question: What about the FIC [2, 19] of the same compound?
Answer: The FIC was 0.48.

Question: What about the FIC [2, 20] of the same compound?
Answer: The FIC was 0.25.
